Measured values from patent US8334110B2, “Detection of blood plasma amygdalin of dissipating blood stasis botanical” (Shanghai Sundise Chinese Medicine Technology Development …, priority 2007, dated 2012).

Test: UPLC/MS determination of blood plasma Amygdalin after administration of the body resistance-strengthening and blood stasis-dissipating botanical composition
Assay type: in vivo
Conditions: blood plasma of mammals after drenched with body resistance-strengthening and blood stasis-dissipating (Fuzheng Huayu, FZHY) botanical composition; UPLC-MS, FIG. 1 (plasma taken 0.5 hours after administration)
Source text: a. After the administration of the body resistance-strengthening and blood stasis-dissipating botanical composition to mammals, first add 2-5 mol/L phosphoric acid to the composition-containing mammalian blood plasma and mix to homogenize, the volumetric ratio of the blood plasma to phosphoric acid is 1:2-3, feed the same to a Waters Oasis HLB cartridge that has been activated by methanol and water, leach with water and 80-100% methanol and elute with 0.2-1% ammonia methanol, then dry through evaporation and enrich the eluent at 25-30° C., and re-dissolve the eluent with a mobile phase;
Chromatographic conditions: chromatographic column: Acquity UPLC BEH C18, 2.1×100 mm, mobile phase A: Water-Acetonitrile-Formic acid 95:5:0.1 v/v/v, mobile phase B: Acetomtrile-Formic acid 100:0.1 v/v; MS conditions: electrospray ionization (ESI) ion source, detection in the positive ion mode, and the mass scanning range m/z 150˜800.
The ESI ion source in said Step (2) employs detection in the positive ion mode; the desolvation gas flow rate is 440 L/h, the desolvation gas temperature is 300° C., the cone gas flow rate is 50 L/h, the ion source temperature is 100° C., the spray capillary voltage is 3800 V, the sampling cone voltage is 30 V, the extracting cone voltage is 2.00 V, and the lens voltage is 0.1 V. The mass scanning range is m/z 150˜800.
1. […]

N#C[C@H](O[C@@H]1O[C@H](CO[C@@H]2O[C@H](CO)[C@@H](O)[C@H](O)[C@H]2O)[C@@H](O)[C@H](O)[C@H]1O)c1ccccc1 [Amygdalin]
Detection of Amygdalin in blood plasma: can be detected
